Data published in US20160287666A1 (priority 2015, published 2016).
Ends that are not written are not given here.

How the values were obtained:
human Nav1.6 [1] = target: T1, human Nav1.6 (Homo sapiens, UniProt Q9UQD0); assay type: cell-based
[2] = system: CFA-induced thermal hyperalgesia; design: species or system mice; details: mouse, in vivo; for CFA-induced thermal hyperalgesia (thermal latency, Hargreaves test): sc
[3] = system: CFA-induced tactile allodynia; design: species or system mice; details: mouse, in vivo
thermal pain = system: thermal pain; design: species or system mice; details: in vivo
[4] = system: carrageenan-induced thermal hyperalgesia; design: species or system mice; details: mouse, in vivo
acute thermal pain [5] = details: rat, in vivo
acute thermal pain [6] = details: rat, in vivo; remark: listed apart in the source
[7] = system: injury-induced pain (formalin); details: rat, in vivo
human Nav1.7 = human Nav1.7 (Homo sapiens, UniProt Q15858, W1161R); assay type: cell-based
human Nav1.6 [8] = target: T1, human Nav1.6; assay: cell-based or functional assay
human Nav1.7 (human) = human Nav1.7 (human) (UniProt Q15858); assay: cell-based or functional assay

T1 sequence (Q9UQD0 whole entry): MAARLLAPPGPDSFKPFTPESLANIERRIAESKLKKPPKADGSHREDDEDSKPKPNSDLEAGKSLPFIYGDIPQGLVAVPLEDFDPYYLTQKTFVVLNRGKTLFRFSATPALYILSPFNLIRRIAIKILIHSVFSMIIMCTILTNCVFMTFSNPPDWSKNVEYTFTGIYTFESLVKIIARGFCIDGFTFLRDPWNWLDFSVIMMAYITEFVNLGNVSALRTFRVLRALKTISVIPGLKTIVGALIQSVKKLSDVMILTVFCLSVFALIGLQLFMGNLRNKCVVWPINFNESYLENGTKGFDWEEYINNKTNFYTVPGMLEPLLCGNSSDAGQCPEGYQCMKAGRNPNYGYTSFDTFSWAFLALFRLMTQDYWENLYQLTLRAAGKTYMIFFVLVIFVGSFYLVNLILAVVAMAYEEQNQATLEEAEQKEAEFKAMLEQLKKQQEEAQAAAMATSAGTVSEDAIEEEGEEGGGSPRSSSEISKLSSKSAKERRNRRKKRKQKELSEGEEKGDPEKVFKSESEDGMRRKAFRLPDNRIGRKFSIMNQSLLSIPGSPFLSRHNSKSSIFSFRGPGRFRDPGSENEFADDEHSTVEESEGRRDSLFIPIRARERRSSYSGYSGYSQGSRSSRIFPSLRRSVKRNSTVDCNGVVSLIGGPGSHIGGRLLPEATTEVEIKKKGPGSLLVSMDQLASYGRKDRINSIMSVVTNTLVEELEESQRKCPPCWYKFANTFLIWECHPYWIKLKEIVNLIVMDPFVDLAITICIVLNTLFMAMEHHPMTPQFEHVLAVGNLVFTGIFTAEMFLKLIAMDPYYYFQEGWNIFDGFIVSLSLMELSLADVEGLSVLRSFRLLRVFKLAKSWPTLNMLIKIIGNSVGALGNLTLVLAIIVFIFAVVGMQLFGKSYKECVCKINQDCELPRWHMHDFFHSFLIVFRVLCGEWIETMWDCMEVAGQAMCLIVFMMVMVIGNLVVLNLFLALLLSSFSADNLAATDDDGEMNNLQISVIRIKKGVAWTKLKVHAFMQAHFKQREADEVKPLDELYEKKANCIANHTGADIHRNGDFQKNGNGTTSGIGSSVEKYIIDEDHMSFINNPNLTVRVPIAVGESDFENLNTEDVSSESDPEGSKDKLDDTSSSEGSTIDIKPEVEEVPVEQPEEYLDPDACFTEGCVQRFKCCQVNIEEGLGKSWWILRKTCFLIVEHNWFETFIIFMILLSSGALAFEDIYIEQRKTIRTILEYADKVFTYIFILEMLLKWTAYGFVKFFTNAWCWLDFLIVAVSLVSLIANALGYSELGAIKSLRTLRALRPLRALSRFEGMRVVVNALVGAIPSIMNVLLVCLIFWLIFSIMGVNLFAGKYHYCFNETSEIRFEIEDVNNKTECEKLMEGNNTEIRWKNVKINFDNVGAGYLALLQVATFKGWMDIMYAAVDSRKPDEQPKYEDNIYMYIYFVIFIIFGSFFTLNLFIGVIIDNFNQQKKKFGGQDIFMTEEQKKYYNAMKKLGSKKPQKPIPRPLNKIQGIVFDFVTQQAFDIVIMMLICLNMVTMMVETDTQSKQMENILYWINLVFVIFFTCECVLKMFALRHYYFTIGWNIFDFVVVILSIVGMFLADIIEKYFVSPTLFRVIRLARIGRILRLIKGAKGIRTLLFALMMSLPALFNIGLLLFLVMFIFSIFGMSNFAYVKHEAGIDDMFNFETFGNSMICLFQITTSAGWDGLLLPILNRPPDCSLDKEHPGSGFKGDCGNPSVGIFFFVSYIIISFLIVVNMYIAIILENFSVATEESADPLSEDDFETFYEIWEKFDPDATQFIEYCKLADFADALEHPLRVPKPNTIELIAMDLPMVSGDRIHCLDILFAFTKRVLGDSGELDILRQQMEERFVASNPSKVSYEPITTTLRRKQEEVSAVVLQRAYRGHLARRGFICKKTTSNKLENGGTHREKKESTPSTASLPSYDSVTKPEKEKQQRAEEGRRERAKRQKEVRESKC

Ac-QCQKWMQTCDAERKCCEGFSCTLWCKKKLW-NH2 [(-GP) N-Ac-NV1D2974-NH2]
selectivity towards Nav1.7 compared to recombinant Protoxin-II (human Nav1.6 [1]): improved selectivity

Ac-QCQKWMQTCDRERKCCEGFVCTLWCRKKLW-NH2 [(-GP) N-Ac-NV1D3034-NH2]
selectivity towards Nav1.7 compared to recombinant Protoxin-II (human Nav1.6 [1]): improved selectivity

GPACQKWMQTCDANRKCCEGFSCRLWCKKKLW-OH (cysteine pairing not given here) [NV1D3587]
selectivity towards Nav1.7 compared to recombinant Protoxin-II (human Nav1.6 [1]): improved selectivity

GPACQKWMQTCDRNRKCCEGFVCTLWCRKKLW-OH (cysteine pairing not given here) [NV1D3541]
selectivity towards Nav1.7 compared to recombinant Protoxin-II (human Nav1.6 [1]): improved selectivity

GPQCQKWMQSCDRERKCCEGFVCTLWCRKKLW-OH (cysteine pairing not given here) [NV1D3359]
selectivity towards Nav1.7 compared to recombinant Protoxin-II (human Nav1.6 [1]): improved selectivity

GPQCQKWMQTCDAERKCCEGFSCTLWCKKKLW-NH2 [NV1D2974-NH2]
selectivity towards Nav1.7 compared to recombinant Protoxin-II (human Nav1.6 [1]): improved selectivity

GPQCQKWMQTCDAERKCCEGFSCTLWCKKKLW-OH (cysteine pairing not given here) [NV1D2974]
selectivity towards Nav1.7 compared to recombinant Protoxin-II (human Nav1.6 [1]): improved selectivity

GPQCQKWMQTCDAERKCCEGFVCRLWCKKKLW-NH2 [NV1D2775-NH2]
selectivity towards Nav1.7 compared to recombinant Protoxin-II (human Nav1.6 [1]): improved selectivity

GPQCQKWMQTCDAERKCCEGFVCRLWCKKKLW-OH (cysteine pairing not given here) [NV1D2775]
anti-hyperalgesic effect first seen, time post-pump implantation [2]: 4 h | thermal latency returned to the control level, time post pump implantation [2]: ≤ 48 h | time at which the effect reached the maximum, thermal test [2]: 8 h | CFA-induced thermal hyperalgesia (thermal latency, Hargreaves test) [2]: reached values close to the cut-off | tactile threshold returned to the control level, time post pump implantation [3]: ≤ 48 h | time at which the effect reached the maximum, tactile test [3]: 8 h | analgesia in the mouse hotplate test (FIG. 8) (thermal pain): significant analgesia | hotplate latency (thermal pain; mouse): reached values near cut-off | analgesia (thermal withdrawal latency) in the carrageenan study [4]: significant analgesia | tail flick test latency (acute thermal pain [5]): significant efficacy | hot plate test latency (acute thermal pain [6]): significant efficacy | formalin test flinches [7]: significant efficacy

GPQCQKWMQTCDARRKCCEGFVCRLWCKKKLW-OH (cysteine pairing not given here) [NV1D3006]
hNav1.7 QP % blk (human Nav1.7): 52.3% @ 10 nM

GPQCQKWMQTCDRERKCCEGFVCTLWCRKKLW-NH2 [NV1D3034-NH2]
selectivity towards Nav1.7 compared to recombinant Protoxin-II (human Nav1.6 [1]): improved selectivity

GPQCQKWMQTCDRERKCCEGFVCTLWCRKKLW-NH-butyl [NV1D3034-NH-butyl]
selectivity towards Nav1.7 compared to recombinant Protoxin-II (human Nav1.6 [1]): improved selectivity

GPQCQKWMQTCDRERKCCEGFVCTLWCRKKLW-NH-methyl [NV1D3034-NH-methyl]
selectivity towards Nav1.7 compared to recombinant Protoxin-II (human Nav1.6 [1]): improved selectivity | CFA-induced thermal hyperalgesia [2]: readily reversed

GPQCQKWMQTCDRERKCCEGFVCTLWCRKKLW-OH (cysteine pairing not given here) [NV1D3034]
CFA-induced thermal hyperalgesia (thermal latency, Hargreaves test) [2]: completely reversed | tail flick test latency (acute thermal pain [5]): significant efficacy | hot plate test latency (acute thermal pain [6]): significant efficacy | formalin test flinches [7]: significant efficacy

GPQCQKWMQTCDRERKCCEGFVCTLWCRKKLWGSAPAPAPAPAPGSCCNCSSKWCRDHSRCC [NV1D3799]
hNav1.7 QP % blk (human Nav1.7): 22.2% @ 30 nM

GPQCQKWMQTCDRERKCCQGFVCTLWCRKKLW-OH (cysteine pairing not given here) [NV1D3388]
selectivity towards Nav1.7 compared to recombinant Protoxin-II (human Nav1.6 [1]): improved selectivity

GPQCQKWMQTCDRNRKCCEGFVCTLWCRKKLW-OH (cysteine pairing not given here) [NV1D3044]
selectivity towards Nav1.7 compared to recombinant Protoxin-II (human Nav1.6 [1]): improved selectivity

GPQCQKWMQTCDRTRKCCEGFVCTLWCRKKLW-NH2 [NV1D3368-NH2]
selectivity towards Nav1.7 compared to recombinant Protoxin-II (human Nav1.6 [1]): improved selectivity | CFA-induced thermal hyperalgesia [2]: readily reversed

GPQCQKWMQTCDRTRKCCEGFVCTLWCRKKLW-OH (cysteine pairing not given here) [NV1D3368]
selectivity towards Nav1.7 compared to recombinant Protoxin-II (human Nav1.6 [1]): improved selectivity | CFA-induced thermal hyperalgesia (thermal latency, Hargreaves test) [2]: fully reversed

GPYCQKWMQTCDANRKCCEGFSCRLWCKKKLW-NH2 [NV1D3586-NH2]
selectivity towards Nav1.7 compared to recombinant Protoxin-II (human Nav1.6 [1]): improved selectivity

GPYCQKWMQTCDANRKCCEGFSCRLWCKKKLW-OH (cysteine pairing not given here) [NV1D3586]
selectivity towards Nav1.7 compared to recombinant Protoxin-II (human Nav1.6 [1]): improved selectivity

recombinant Protoxin-II (peptide)
IC50 (QPatch electrophysiology assay) (human Nav1.6 [8]): 6.2e-08 M | ratio of IC50 for Nav1.6 to IC50 for Nav1.7 (QPatch) (human Nav1.6 [8]): 28 fold

wild type Protoxin-II (peptide)
IC50 (FLIPR assay, veratridine-induced membrane depolarization) (human Nav1.7 (human)): 4 nM
